# Experimental data reported in US7915267B2, “Heterocyclic amide compound and use thereof” (Takeda Pharmaceutical Company Limited, priority 2005, dated 2011).
# Biological target: T1, MMP-13 (Homo sapiens, UniProt P45452)
# T1 construct: purchased GenzymeTechne
# Assay: MMP-13 inhibitory activity (fluorogenic substrate Cy3-PLGLK(Cy5Q)AR-NH2 enzyme assay)
# Type: biochemical
# Settings: compound 1 μM; 37° C., 40 min; APMA-activated MMP-13 precursor; read-out: MMP-13 inhibitory rate (%) at 1 μM
# Procedure: To 10 μg of MMP-13 precursor (GenzymeTechne) was added 1 ml of assay buffer (50 mM Tris-HCl (pH 7.5), 10 mM CaCl2, 150 mM NaCl, 0.05% Brij-35), and 4-aminophenylmercuric acid (Sigma) was added to the final concentration of 1 mM. The MMP-13 precursor was activated by incubating at 37° C. for 2 hr.
# In a 96 well black plate (Corning), to 6.3 ng/ml of MMP-13 solution (49 μl) diluted with assay buffer was added the test compound (1 μl) diluted with dimethyl sulfoxide (DMSO) and 620 nM Cy3-PLGLK(Cy5Q)AR-NH2 (50 μl, synthesized by Amersham Biosciences) in assay buffer was added to start the enzyme reaction. After incubation at 37° C. for 40 min, 500 mM EDTA solution (6 μl) was added to stop the reaction. For measurement, Farcyte (Amersham Biosciences) was used to measure at excitation wavelength 535 nm and measurement wavelength 595 nm.
# T: value of well with addition of DMSO instead of test compound
# C: value of well with addition of DMSO instead of test compound and addition of EDTA solution before addition of substrate solution
# X: value of well with addition of test compound
row,Compound,inhibition at 1 µM [%]
1,"O=C(NCc1cccc(COCc2nc[nH]n2)c1)c1nc2ccccc2c(=O)[nH]1 [Example 30, 4-oxo-N-[(3-{[(1H-1,2,4-triazol-3-ylmethyl)oxy]methyl}phenyl)methyl]-3,4-dihydroquinazoline-2-carboxamide]",96
2,"N#Cc1ccc2nc(C(=O)NCc3cccc(COCc4nc[nH]n4)c3)[nH]c(=O)c2c1 [Example 31, 6-cyano-4-oxo-N-[(3-{[(1H-1,2,4-triazol-3-ylmethyl)oxy]methyl}phenyl)methyl]-3,4-dihydroquinazoline-2-carboxamide]",97
3,"N#Cc1ccc2nc(C(=O)NCc3cccc(NC(=O)CCc4nc[nH]n4)c3)[nH]c(=O)c2c1 [Example 32, 6-cyano-4-oxo-N-[(3-{[3-(1H-1,2,4-triazol-3-yl)propanoyl]amino}phenyl)methyl]-3,4-dihydroquinazoline-2-carboxamide]",98
4,"N#Cc1ccc2nc(C(=O)NCc3cccc(CNC(=O)Cc4nc[nH]n4)c3)[nH]c(=O)c2c1 [Example 34, 6-cyano-4-oxo-N-[(3-{[(1H-1,2,4-triazol-3-ylacetyl)amino]methyl}phenyl)methyl]-3,4-dihydroquinazoline-2-carboxamide]",90
5,"N#Cc1ccc2nc(C(=O)NCc3cccc(CNC(=O)c4nc[nH]n4)c3)[nH]c(=O)c2c1 [Example 36, 6-cyano-4-oxo-N-[(3-{[(1H-1,2,4-triazol-3-ylcarbonyl)amino]methyl}phenyl)methyl]-3,4-dihydroquinazoline-2-carboxamide]",97
6,"N#Cc1ccc2nc(C(=O)NCc3cccc(NC(=O)c4nc[nH]n4)c3)[nH]c(=O)c2c1 [Example 38, 6-cyano-4-oxo-N-({3-[(1H-1,2,4-triazol-3-ylcarbonyl)amino]phenyl}methyl)-3,4-dihydroquinazoline-2-carboxamide]",85
7,"Cc1csc2nc(C(=O)NCc3cccc(NC(=O)c4nc[nH]n4)c3)[nH]c(=O)c12 [Example 39, 5-methyl-4-oxo-N-({3-[(1H-1,2,4-triazol-3-ylcarbonyl)amino]phenyl}methyl)-3,4-dihydrothieno[2,3-d]pyrimidine-2-carboxamide]",81
8,"O=C(CCCOc1cccc(CNC(=O)c2nc3ccccc3c(=O)[nH]2)c1)Nc1nc[nH]n1 [Example 40, 4-oxo-N-[(3-{[4-oxo-4-(1H-1,2,4-triazol-3-ylamino)butyl]oxy}phenyl)methyl]-3,4-dihydroquinazoline-2-carboxamide]",94
9,"CCOC(=O)c1ccc(COCc2csc3nc(C(=O)NCc4ccnc(OCCCc5nc[nH]n5)c4)[nH]c(=O)c23)cc1 [Example 41, ethyl 4-[({[4-oxo-2-({[(2-{[3-(1H-1,2,4-triazol-3-yl)propyl]oxy}pyridin-4-yl)methyl]amino}carbonyl)-3,4-dihydrothieno[2,3-d]pyrimidin-5-yl]methyl}oxy)methyl]benzoate]",96
10,"O=C(O)c1ccc(COCc2csc3nc(C(=O)NCc4ccnc(OCCCc5nc[nH]n5)c4)[nH]c(=O)c23)cc1 [Example 42, 4-[({[4-oxo-2-({[(2-{[3-(1H-1,2,4-triazol-3-yl)propyl]oxy}pyridin-4-yl)methyl]amino}carbonyl)-3,4-dihydrothieno[2,3-d]pyrimidin-5-yl]-methyl}oxy)methyl]benzoic acid]",98
11,"O=C(NCc1cccc(OCCOc2nc[nH]n2)c1)c1nc2ccc(F)c(F)c2c(=O)[nH]1 [Example 44, 5,6-difluoro-4-oxo-N-[(3-{[2-(1H-1,2,4-triazol-3-yloxy)ethyl]oxy}phenyl)methyl]-3,4-dihydroquinazoline-2-carboxamide]",98
12,"O=C(NCc1cccc(OCCOc2nc[nH]n2)c1)c1nc2ccc(F)c(NCc3cccc(OCCOc4nc[nH]n4)c3)c2c(=O)[nH]1 [Example 45, 6-fluoro-4-oxo-N-[(3-{[2-(1H-1,2,4-triazol-3-yloxy)ethyl]oxy}phenyl)methyl]-5-{[(3-{[2-(1H-1,2,4-triazol-3-yloxy)ethyl]oxy}phenyl)methyl]amino}-3,4-dihydroquinazoline-2-carboxamide]",97
13,"O=C(O)c1ccc(CCOc2c(F)ccc3nc(C(=O)NCc4cccc(OCCOc5nc[nH]n5)c4)[nH]c(=O)c23)cc1 [Example 46, 4-(2-{[6-fluoro-4-oxo-2-({[(3-{[2-(1H-1,2,4-triazol-3-yloxy)ethyl]oxy}phenyl)methyl]amino}carbonyl)-3,4-dihydroquinazolin-5-yl]oxy}ethyl)benzoic acid]",100
14,"COC(=O)c1ccc(OCCn2ncc3nc(C(=O)NCc4cccc(OCCOc5nc[nH]n5)c4)[nH]c(=O)c32)cc1 [Example 47, methyl 4-({2-[7-oxo-5-({[(3-{[2-(1H-1,2,4-triazol-3-yloxy)ethyl]oxy}phenyl)methyl]amino)carbonyl}-6,7-dihydro-1H-pyrazolo[4,3-d]pyrimidin-1-yl]ethyl}oxy)benzoate]",98
15,"O=C(O)c1ccc(OCCn2ncc3nc(C(=O)NCc4cccc(OCCOc5nc[nH]n5)c4)[nH]c(=O)c32)cc1 [Example 48, 4-({2-[7-oxo-5-({[(3-{[2-(1H-1,2,4-triazol-3-yloxy)ethyl]oxy}phenyl)methyl]amino}carbonyl)-6,7-dihydro-1H-pyrazolo[4,3-d]pyrimidin-1-yl]ethyl}oxy)benzoic acid]",99
